# Reference: publication PMC12610721, “The Action of Cannabidiol on Doxycycline Cytotoxicity in Human Cells—In Vitro Study” (Molecules, 2025)
# Read-outs that look alike come from different tables or passages of the source.
# Tests used:
# [1] = system: rat neuronal cell line PC12; design: method as in PMID 33798505; settings: PC12, 24 h, 20 µM (10.26 µg/mL); cited from earlier work
# [2] = system: HepG2 cells; test: series of five cytotoxicity assays (MTT, NRU, TPC, LDH, BrdU), summary; format: cell-based; settings: Homo sapiens, HepG2, 72 h, across MTT, read-out: IC50 values, range depending on the cellular parameter evaluated
# Method: The cultured cells, for 72 h, were exposed to doxycycline (at concentrations ranging from 1.56 μg/mL to 200 μg/mL), both alone and in combination with CBD: 1.56 μg/mL (DOX + C1) and 3.125 μg/mL (DOX + C2) at two non-toxic doses (Supplementary Materials). A series of cytotoxicity assays included assessments of mitochondrial activity, lysosomal activity, cell membrane integrity, DNA synthesis, and cell proliferation.
# The metabolic activity of viable cells was assessed by measuring dehydrogenase activity [82]. After exposing the cell cultures to the test compounds, 10 µL of MTT solution (5 mg/mL in PBS) was added to each well of a 96-well plate. […] The plate was shaken for 15 min at room temperature and transferred to a Synergy 2 Multi-Mode Microplate Reader (BioTek® Instruments Inc., Winooski, VT, USA) to measure absorbance at 570 nm, using a blank as reference. Cytotoxicity was expressed as a percentage relative to the negative control [83].
# This method is based on staining viable cells with neutral red, a dye that readily diffuses through the plasma membrane and accumulates in lysosomes [84]. […] After 10 min of shaking, the absorbance of the extracted dye was measured at 540 nm using a Synergy 2 Multi-Mode Microplate Reader (BioTek® Instruments Inc., Winooski, VT, USA), with a blank as reference. Cytotoxicity was expressed as a percentage relative to the negative control [83]. […]
# [3] = system: HepG2 cells; test: proliferation, total cellular protein (TPC assay)
# Method: (§1) This innovative study evaluated the effects of cannabidiol (Cannabis sativa L.) on doxycycline-induced toxicity using three cell cultures: neural—SH-SY5Y, liver—HepG2, and kidney—HEK-293. […] A series of cytotoxicity assays included assessments of mitochondrial activity, lysosomal activity, cell membrane integrity, DNA synthesis, and cell proliferation. Based on the obtained results, IC50 values for doxycycline, both in monotherapy and in combination with CBD, were calculated, along with evaluations of ROS, death of cells, and morphology. The interaction between the drug and CBD was further analyzed by the combination index (CI).
# (§2) This assay is based on staining total cellular proteins as a measure of proliferation. After incubation, the medium containing the test compounds was removed, and 100 µL of Coomassie Brilliant Blue R-250 dye was added to each well. The plate was shaken for 10 min. The dye was then removed, and the cells were rinsed twice with 100 µL of washing solution (glacial acetic acid/ethanol/water, 5:10:85, v/v/v). Next, 100 µL of desorbing solution (1 M potassium acetate) was added, and the plate was shaken again for 10 min. Absorbance was measured at 595 nm using the Synergy 2 Multi-Mode Microplate Reader (BioTek® Instruments Inc., Winooski, VT, USA), with a blank as reference. Cytotoxicity was expressed as a percentage relative to the negative control.
# (§3) To determine the types of interaction that occur when cells are exposed to combinations of DOX and CBD, the method established by Chou and Talalay was used in this study. The dose–effect relationships of the individual and combined test compounds were modeled biometrically using the Median-Effect Equation based on the Mass Action Law.fa/fu = (D/Dm)^m
# (§4) In this isobolographic analysis, the combination index (CI) is a quantitative parameter used to evaluate the type and strength of interactions between multiple compounds. For all combinations, CI values were calculated across a range of affected fractions (Fa) from 0.05 to 0.95 (corresponding to 5–95% toxicity). CI values of 0.9–1.1, <0.9, and >1.1 indicate additive, synergistic, and antagonistic effects, respectively.
# (§5) The study was conducted in three independent experiments (n = 3). […] Cytotoxicity data were analyzed using one-way analysis of variance (ANOVA), followed by Dunnett’s post hoc test to assess significance relative to the negative control. The half-maximal inhibitory concentration (IC50), representing the drug or drug–CBD mixture concentration required to inhibit cell viability by 50%, was calculated using GraphPad Prism 5.0. Statistical comparisons between IC50 values were performed using ANOVA followed by Tukey’s post hoc test. Differences were considered statistically significant at p ≤ 0.05.
# [4] = system: SH-SY5Y cells; test: proliferation, total cellular protein (TPC assay); settings: 72 h
# Method: as §1, §2, §3, §4, §5
# [5] = system: HEK-293 cells; test: proliferation, total cellular protein (TPC assay)
# Method: as §1, §2, §3, §4, §5
# [6] = cited from earlier work
# [7] = system: normal HK-2 cells; design: method as in PMID 34644207; settings: HK-2, 20 µg/mL, without triggering apoptosis; cited from earlier work
# [8] = system: SH-SY5Y cells; design: method as in PMID 16341128; settings: 24 h, cited from earlier work
# [9] = system: SH-SY5Y cells; design: method as in earlier work; settings: 48 h exposure, cited from earlier work
# [10] = system: HepG2 cells; test: DNA synthesis (BrdU assay)
# Method: as §1
# (§6) Cell proliferation was evaluated using the BrdU assay (Cell Proliferation ELISA, BrdU [colorimetric], Roche, Switzerland) according to the manufacturer’s instructions. Briefly, BrdU was incorporated into newly synthesized DNA in place of thymidine during cell division. Incorporated BrdU was detected using an anti-BrdU antibody conjugated with peroxidase. The enzymatic reaction product was quantified by measuring absorbance. Absorbance was measured at 370 nm and 492 nm using the Synergy 2 Multi-Mode Microplate Reader (BioTek® Instruments Inc., Winooski, VT, USA), with a blank as reference.
# as §3, §4, §5
# [11] = system: SH-SY5Y cells; test: DNA synthesis (BrdU assay); settings: 72 h
# Method: as §1, §6, §3, §4, §5
# [12] = system: HEK-293 cells; test: DNA synthesis (BrdU assay); settings: for doxycycline concentration that inhibited DNA synthesis: HEK-293, BrdU, 72 h
# Method: as §1, §6, §3, §4, §5
# [13] = system: HepG2 cells; design: method as in PMID 22116976; settings: HepG2, 20 µM (10.3 µg/mL); inhibited mitochondrial activity, membrane damage, increased ROS; cited from earlier work
# [14] = system: HepG2 cells; test: lysosomal activity (NRU assay)
# Method: as §1
# (§7) This method is based on staining viable cells with neutral red, a dye that readily diffuses through the plasma membrane and accumulates in lysosomes. After incubation with the test compounds, the medium containing the substances was removed, and the cells were washed with PBS. Subsequently, 100 µL/well of neutral red (NR) solution (50 µg/mL) was added and incubated for 3 h. After incubation, the cells were washed again with PBS. The dye retained in viable cells was extracted using a solution of acetic acid, ethanol, and water (1:50:49, v/v/v). After 10 min of shaking, the absorbance of the extracted dye was measured at 540 nm using a Synergy 2 Multi-Mode Microplate Reader (BioTek® Instruments Inc., Winooski, VT, USA), with a blank as reference. Cytotoxicity was expressed as a percentage relative to the negative control.
# as §3, §4, §5
# [15] = system: SH-SY5Y cells; test: lysosomal activity (NRU assay); settings: 72 h
# Method: as §1, §7, §3, §4, §5
# [16] = system: HEK-293 cells; test: lysosomal activity (NRU assay)
# Method: as §1, §7, §3, §4, §5
compound,measurement,setting,value
"C[C@H]1c2cccc(O)c2C(=O)C2=C(O)[C@]3(O)C(=O)C(C(N)=O)=C(O)[C@@H](N(C)C)[C@@H]3[C@@H](O)[C@@H]21 [DOX, doxycycline hyclate]",neurotoxicity,[1],no signs of neurotoxicity
same,IC50,[2],13.4 to 200 µg/mL
same,doxycycline concentration that reduced cell proliferation,"[3]; HepG2, TPC, 72 h",50 µg/mL
same,IC50,"[3]; Homo sapiens, HepG2, 72 h",> 200 µg/mL
same,IC50,[4]; Homo sapiens,> 200 µg/mL
same,doxycycline concentration at which cell proliferation decreased,[4]; TPC,50 µg/mL
same,doxycycline concentration that inhibited cell proliferation,"[5]; HEK-293, TPC, 72 h",12.5 µg/mL
same,IC50,"[5]; Homo sapiens, HEK293, 72 h",14.8 ± 1.3 µg/mL
same,DOX level in breast muscles,[6]; breast muscles,32.4 ± 3.6 µg/kg
same,residues of DOX detected in eggs,[6]; eggs,up to 1400 μg/kg
same,DOX concentration accumulated in the kidneys,[6]; kidneys,44.7 ± 4.3 µg/kg
same,DOX concentration measured in the liver,[6]; liver,21.6 ± 3.2 µg/kg
same,residues of DOX detected in milk,[6]; milk,5 to 490 µg/kg
same,DOX level in thigh muscles,[6]; thigh muscles,22.7 ± 2.9 µg/kg
same,effect on DNA synthesis,[7],inhibited DNA synthesis
same,effect on cell density,[8]; 1 µg/mL,minimal
same,effect on cell density,[8]; higher concentrations up to 4 µg/mL,decreased SH-SY5Y cell density
same,IC50,[9]; converted value in brackets,1.9 µg/mL
same,IC50,[9]; read-out: IC50,3.7 ± 0.1 µM
same,doxycycline concentration that inhibited DNA synthesis,"[10]; HepG2, BrdU, 72 h",12.5 µg/mL
same,IC50,"[10]; Homo sapiens, HepG2, 72 h",24 ± 0.4 µg/mL
same,doxycycline concentration that inhibited DNA synthesis,[11]; BrdU,12.5 µg/mL
same,IC50,[11]; Homo sapiens,15.6 ± 0.7 µg/mL
same,doxycycline concentration that inhibited DNA synthesis,[12],3.12 µg/mL
same,doxycycline concentration that inhibited DNA synthesis,[12]; listed as doxycycline,3.125 µg/mL
same,IC50,"[12]; Homo sapiens, HEK293, 72 h",8.9 ± 0.1 µg/mL
same,effect on cell viability,[13],reduced cell viability
same,doxycycline concentration that inhibited lysosomal activity,"[14]; HepG2, NRU, 72 h",25 µg/mL
same,IC50,"[14]; Homo sapiens, HepG2, 72 h",13.4 ± 0.9 µg/mL
same,IC50,[15]; Homo sapiens,> 200 µg/mL
same,doxycycline concentration at which lysosomal activity was inhibited,[15]; NRU,50 µg/mL
same,doxycycline concentration that inhibited lysosomal activity,"[16]; HEK-293, NRU, 72 h",6.25 µg/mL
same,IC50,"[16]; Homo sapiens, HEK293, 72 h",12.7 ± 1 µg/mL
